Measurements: patent US20230295087A1, “AGONISTS OF ROR GAMMAt” (BRISTOL-MYERS SQUIBB COMPANY, priority 2019, published 2023)

molecular target: T1, human RORgT (Homo sapiens, UniProt P51449); test: RORgT Gal4 Luciferase Reporter Gene Assay; type: cell-based; details: engineered Jurkat cells overexpressing RORgT (LBD or full length) fused with Gal4 Luc reporter; 18 hours at 37° C.; luminescence
T1 construct: expressed in transfected cells
T1 sequence (P51449 267-516): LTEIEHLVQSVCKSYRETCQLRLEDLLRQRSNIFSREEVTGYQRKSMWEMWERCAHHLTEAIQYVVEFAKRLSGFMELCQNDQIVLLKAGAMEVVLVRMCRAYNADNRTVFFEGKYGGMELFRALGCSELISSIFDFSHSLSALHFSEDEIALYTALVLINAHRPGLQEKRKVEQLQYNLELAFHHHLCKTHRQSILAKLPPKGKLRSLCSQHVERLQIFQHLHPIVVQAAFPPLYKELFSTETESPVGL
Procedure, shortened: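 Jurkat cells expressing Gal4 Luc with either RORgT LBD (aa267-516) or full-length human RORgT, 10,000 cells/well, treated with compound (40 µM to 0.67 nM final, 3-fold dilutions) for 18 h at 37° C. Steady-Glo luminescence read; inhibition of constitutive activity as % signal-window reduction relative to a control compound.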

Question: How did the EC50 turn out when `O=C(CN1CCS(=O)(=O)CC1)N1CC[C@@]2(S(=O)(=O)c3ccc(F)cc3)c3ccc(OCc4cc(F)ccc4Cl)cc3CC[C@@H]12` [Example 180, 4-{2-[(3aR,9bR)-7-[(2-chloro-5-fluorophenyl)methoxy]-9b-(4-fluorobenzenesulfonyl)-1H,2H,3H,3aH,4H,5H,9bH-benzo[e]indol-3-yl]-2-oxoethyl}-1λ^6-thiomorpholine-1,1-dione] was run?
Answer: 21 nM

Question: Which EC50 does the source give for `O=C(C1CCS(=O)(=O)CC1)N1CC[C@@]2(S(=O)(=O)c3ccc(F)cc3)c3ccc(OCc4cc(F)ccc4Cl)cc3CC[C@@H]12` [Example 181, 4-[(3aR,9bR)-7-[(2-chloro-5-fluorophenyl)methoxy]-9b-(4-fluorobenzenesulfonyl)-1H,2H,3H,3aH,4H,5H,9bH-benzo[e]indole-3-carbonyl]-1λ^6-thiane-1,1-dione] here?
Answer: 8.8 nM

Question: For `CC(=O)N1CCC(C(=O)N2CC[C@@]3(S(=O)(=O)c4ccc(F)cc4)c4ccc(OCc5c(F)cccc5C(F)(F)F)cc4CC[C@@H]23)CC1` [Example 182, 1-{4-[(3aR,9bR)-7-{[2-fluoro-6-(trifluoromethyl)phenyl]methoxy}-9b-(4-fluorobenzenesulfonyl)-1H,2H,3H,3aH,4H,5H,9bH-benzo[e]indole-3-carbonyl]piperidin-1-yl}ethan-1-one], which EC50 is on record?
Answer: 16 nM

Question: How did the EC50 turn out when `COC(=O)[C@H]1CC[C@H](C(=O)N2CC[C@@]3(S(=O)(=O)c4ccc(F)cc4)c4ccc(OCc5c(F)cccc5C(F)(F)F)cc4CC[C@@H]23)CC1` [Example 183, methyl (1r,4r)-4-[(3aR,9bR)-7-{[2-fluoro-6-(trifluoromethyl)phenyl]methoxy}-9b-(4-fluorobenzenesulfonyl)-1H,2H,3H,3aH,4H,5H,9bH-benzo[e]indole-3-carbonyl]cyclohexane-1-carboxylate] was run?
Answer: 48 nM

Question: How did the EC50 turn out when `CN1CCC(C(=O)N2CC[C@@]3(S(=O)(=O)c4ccc(F)cc4)c4ccc(OCc5c(F)cccc5C(F)(F)F)cc4CC[C@@H]23)CC1` [Example 184, 4-[(3aR,9bR)-7-{[2-fluoro-6-(trifluoromethyl)phenyl]methoxy}-9b-(4-fluorobenzenesulfonyl)-1H,2H,3H,3aH,4H,5H,9bH-benzo[e]indole-3-carbonyl]-1-methylpiperidine] was run?
Answer: 68 nM

Question: For `NS(=O)(=O)CC(=O)N1CC[C@@]2(S(=O)(=O)c3ccc(F)cc3)c3ccc(OCc4c(F)cccc4C(F)(F)F)cc3CC[C@@H]12` [Example 185, 2-[(3aR,9bR)-7-{[2-fluoro-6-(trifluoromethyl)phenyl]methoxy}-9b-(4-fluorobenzenesulfonyl)-1H,2H,3H,3aH,4H,5H,9bH-benzo[e]indol-3-yl]-2-oxoethane-1-sulfonamide], which EC50 is on record?
Answer: 90 nM

Question: `O=C(C1CCS(=O)(=O)C1)N1CC[C@@]2(S(=O)(=O)c3ccc(F)cc3)c3ccc(OCc4c(F)cccc4C(F)(F)F)cc3CC[C@@H]12` (stereo partly drawn) [Example 187, 3-[(3aR,9bR)-7-{[2-fluoro-6-(trifluoromethyl)phenyl]methoxy}-9b-(4-fluorobenzenesulfonyl)-1H,2H,3H,3aH,4H,5H,9bH-benzo[e]indole-3-carbonyl]-1λ^6-thiolane-1,1-dione] was tested. Which EC50 did it give?
Answer: 10 nM

Question: For `CS(=O)(=O)CC(=O)N1CC[C@@]2(S(=O)(=O)c3ccc(F)cc3)c3ccc(OCc4c(F)cccc4C(F)(F)F)cc3CC[C@@H]12` [Example 188, 1-[(3aR,9bR)-7-{[2-fluoro-6-(trifluoromethyl)phenyl]methoxy}-9b-(4-fluorobenzenesulfonyl)-1H,2H,3H,3aH,4H,5H,9bH-benzo[e]indol-3-yl]-2-methanesulfonylethan-1-one], which EC50 is on record?
Answer: 75 nM

Question: With `CC(=O)N1CCC(C(=O)N2CC[C@@]3(S(=O)(=O)c4ccc(F)cc4)c4ccc(OCc5c(Cl)cccc5Cl)cc4CC[C@@H]23)CC1` [Example 189, 1-{4-[(3aR,9bR)-7-[(2,6-dichlorophenyl)methoxy] -9b-(4-fluorobenzenesulfonyl)-1H,2H,3H,3aH,4H,5H,9bH-benzo[e]indole-3-carbonyl]piperidin-1-yl}ethan-1-one] as the compound, how does the EC50 read?
Answer: 41 nM
